Counter-ions that a name gives are not always drawn. Like-named read-outs stand apart in the source and are kept apart here.
Key:
[1] = tested on: Voltage-Sensitive Na+ Channel (site 2); experiment: Radioligand binding, [3H]BTX, Cerep; settings: 100 µM, rat cerebral cortex synaptoneurosomal preparations
Method: (§1) Binding and functional studies were performed commercially in Cerep Laboratories (Poitiers, France) using testing procedures described elsewhere (Na^+ channel-site 2 [27], L-type Ca^2+ channel, dihydropyridine site, TRPV1 (VR1) (h) (antagonist effect), GABA transporter (GAT)). All experiments were performed in duplicate.

TRPV1 receptor = biological target: T1, TRPV1 receptor (Homo sapiens, UniProt Q8NER1); experiment: TRPV1 (VR1) (h) antagonist effect, Cerep; format: biochemical; settings: 100 µM
T1 construct: Cerep Laboratories (Poitiers, France)
Method: as §1

[2] = tested on: motor impairment on rotarod; experiment: Rotarod test (acute neurotoxicity, NT); format: in vivo; settings: ip, 100 mg/kg, 0.5 h
Method: In this test mice were trained to balance on an accelerating rotarod that rotated at 10 rotations per minute (Rotarod apparatus, May Commat RR0711, Turkey; rod diameter: 3 cm). During the training session, the animals were placed on a rotating rod for 3 min with an unlimited number of trials. Proper experiment was conducted 24 h after the training trial. On the test day, trained mice were intraperitoneally pretreated with the test compound at a dose of 100 mg/kg and just before the MES test were tested on the rotarod. Neurotoxicity was indicated by the inability of the animal to maintain equilibration on the rod for 1 min. […] Each group consisted of six animals.

[3] = tested on: 6 Hz psychomotor seizures; experiment: 6 Hz (32 mA) psychomotor seizure test; format: in vivo, mice; settings: for ED50 / responders at 100 mg/kg: Mus musculus; for ED50 / PI (TD50/ED50), 6 Hz: mice ip; for ED50: 95% confidence limit in brackets; for responders at 100 mg/kg / 6 Hz: tested animals protected: ip, 0.5 h
From the text: Psychomotor seizures were induced via corneal stimulation (6 Hz, 32 mA, 0.2 ms rectangular pulse width, 3 s duration) using a constant-current device (ECT Unit 57800, Ugo Basile, Italy). A drop of 1% solution of lidocaine hydrochloride was applied to the mouse corneas before stimulation to provide local anesthesia and ensure optimal current conductivity. After the electrical stimulation, mice were gently released and observed for the presence or absence of seizure activity, being characterized by immobility associated with rearing, forelimb clonus, twitching of the vibrissae, stun, and Straub-tail. Lack of the above symptoms or their cessation within 10 s from the stimulation was considered as absence of seizure activity. The initial anticonvulsant screening of the tested compounds was performed at a fixed dose of 100 mg/kg (four mice per group). Then ED50 was calculated for active compounds as described above.

[4] = Hepatotoxicity, PrestoBlue viability assay; format: cell-based, human; settings: human, Hep G2 cells, 1–100 μM, read-out: Hep G2 cell viability
Method: (§2) Hepatotoxicity of tested compounds was assessed in PrestoBlue (Thermo Fisher Scientific, Waltham, MA, USA) Experiments on microplate reader (SpectraMax® iD3, Molecular Devices, San Jose, CA, USA) using human hepatocellular carcinoma cells (Hep G2) ATCC® […]. The cells were cultured in standard conditions (37 °C, 5% CO2), in Dulbecco’s Modified Eagle’s Medium-high glucose, (DMEM, Gibco, Thermo Fisher Scientific, Waltham, MA, USA) supplemented with 10% fetal bovine serum (Thermo Fisher Scientific, Waltham, MA, USA), with added 100 IU/mL penicillin (Sigma Aldrich, Steinheim, Germany) and 100 µg/mL streptomycin (Sigma Aldrich). PrestoBlue reagent is a resazurin-based solution that functions as a cell viability indicator. Metabolically active cells are capable of reducing the PrestoBlue reagent, with the colorimetric changes used as an indicator to quantify the viability of cells in culture. This change can be determined by measuring the fluorescence. After 24 h of incubation with the compounds PrestoBlue reagent was added to wells of a microplate. After 20 min of incubation at 37 °C, the fluorescence intensity (EX 530; EM 580 nm) was measured in a plate reader. Viability values were calculated as a percentage of live cells with respect to the control sample (DMSO). The negative control was medium without cells. Astemizole was used as a reference substance.

[5] = tested on: Voltage-Sensitive Ca2+ Channel L-type (dihydropyridine site); experiment: Radioligand binding, [3H]nitrendipine, Cerep; settings: 100 µM, rat cerebral cortex synaptoneurosomal preparations
Method: as §1

[6] = Rotarod test (acute neurotoxicity, NT); settings: mouse, in vivo, mice ip
[7] = tested on: maximal electroshock seizures; experiment: Maximal electroshock seizure (MES) test; format: in vivo, mice; settings: for responders at 100 mg/kg / ED50: Mus musculus; for responders at 100 mg/kg / MES: tested animals protected: ip, 0.5 h; for ED50: mice ip, 95% confidence limit in brackets
Method: The MES test was performed as previously described. Stimuli (25 mA, 0.2 s, 50 Hz) were generated by a constant current stimulator (Rodent shocker, Type 221, Hugo Sachs Elektronik, Germany) and delivered with the use of auricular electrodes. During the stimulation, each mouse was restrained manually, and immediately after the stimulation gently released for observation. The endpoint was the tonic extension of the hind limbs. Mice not displaying hindlimb tonic extension were considered to be protected from seizure. The initial anticonvulsant screening of the tested compounds was performed at a fixed dose of 100 mg/kg (four mice per group). […] To evaluate the ED50, at least three groups of animals were injected with various doses of tested compounds. Each group consisted of six animals.

[8] = tested on: latency time to pain reaction; experiment: Hot plate test; format: in vivo; settings: mice, ip, 30 mg/kg
Method: The hot plate test was carried out based on the Eddy and Leimbach (1953) method. In this test, the apparatus was equipped with an electrically heated surface with a temperature controller that maintains surface temperature to a set point. Herein, the temperature was set at 55 °C. The animals were treated ip either with the test compounds, or vehicle 30 min before placing the animal on a hot plate apparatus. Latency time to pain reaction, i.e., the time until the animal licked its back paws or jumped was recorded by means of the stopwatch.

[9] = tested on: PTZ-induced clonic seizures; experiment: Subcutaneous pentylenetetrazole (scPTZ) seizure test; format: in vivo; settings: mice, 100 mg/kg
Method: Clonic convulsions were induced by the subcutaneous (sc) administration of PTZ at a dose of 100 mg/kg. After PTZ injection, the mice were placed separately and observed during the next 30 min for the occurrence of clonic seizures. Clonic seizures were defined as clonus of the whole body lasting more than 3 s, with an accompanying loss of righting reflex. The latency to first clonus, the number of seizure episodes, and mortality rate were noted and compared with vehicle-treated and drug-treated groups. The absence of clonic convulsions within the observed time period was interpreted as the compound’s ability to protect against PTZ-induced seizures.

GABA Transporter (GAT) = experiment: Radioligand binding, [3H]GABA, Cerep; settings: 100 µM, rat cerebral cortex synaptoneurosomal preparations
Method: as §1

[10] = tested on: acetic acid-induced writhing behavior; experiment: Acetic acid-induced writhing test; format: in vivo; settings: mice, ip
Method: Mice were injected with the test compound or vehicle by intraperitoneally route (ip), and 30 min later, 0.9 % acetic acid solution was injected ip and the animals were placed into the glass beakers. The writhing response (lengthwise stretching of the torso, concave arching of the back, and extension of the hind limbs) was recorded for 30 min. The analgesic effect of the tested substances was determined by a decrease in the number of writhes observed and the results were expressed as percent inhibition of writhing behavior (as index of analgesia), and was calculated using the following formula: %Inhibition=(NA−NB)/NA×100, where NA—number of writhes in vehicle group, NB—number of writhes in drug-treated group.

Hep G2 cells = experiment: Hepatotoxicity, PrestoBlue viability assay; format: cell-based, human; settings: 24 h; for Hepatotoxicity in Hep G2 cells, in words: 1 and 10 μM; for Inhibition of viability of Hep G2 cells: 100 and 50 μM
Method: as §2

[11] = tested on: maximal electroshock seizures; settings: cited from earlier work
[12] = tested on: 6 Hz psychomotor seizures; settings: mice ip, reference AEDs, cited from earlier work; for 6 Hz ED50: 32 mA
[13] = mice, 100 mg/kg, 32 mA, read-out: 6 Hz: number of mice protected/number of mice tested (converted)
[14] = mice, 100 mg/kg, read-out: MES: number of mice protected/number of mice tested (converted)
[15] = read-out: 6 Hz: number of mice protected/number of mice tested
[16] = read-out: MES: number of mice protected/number of mice tested

T1 sequence (Q8NER1 whole entry): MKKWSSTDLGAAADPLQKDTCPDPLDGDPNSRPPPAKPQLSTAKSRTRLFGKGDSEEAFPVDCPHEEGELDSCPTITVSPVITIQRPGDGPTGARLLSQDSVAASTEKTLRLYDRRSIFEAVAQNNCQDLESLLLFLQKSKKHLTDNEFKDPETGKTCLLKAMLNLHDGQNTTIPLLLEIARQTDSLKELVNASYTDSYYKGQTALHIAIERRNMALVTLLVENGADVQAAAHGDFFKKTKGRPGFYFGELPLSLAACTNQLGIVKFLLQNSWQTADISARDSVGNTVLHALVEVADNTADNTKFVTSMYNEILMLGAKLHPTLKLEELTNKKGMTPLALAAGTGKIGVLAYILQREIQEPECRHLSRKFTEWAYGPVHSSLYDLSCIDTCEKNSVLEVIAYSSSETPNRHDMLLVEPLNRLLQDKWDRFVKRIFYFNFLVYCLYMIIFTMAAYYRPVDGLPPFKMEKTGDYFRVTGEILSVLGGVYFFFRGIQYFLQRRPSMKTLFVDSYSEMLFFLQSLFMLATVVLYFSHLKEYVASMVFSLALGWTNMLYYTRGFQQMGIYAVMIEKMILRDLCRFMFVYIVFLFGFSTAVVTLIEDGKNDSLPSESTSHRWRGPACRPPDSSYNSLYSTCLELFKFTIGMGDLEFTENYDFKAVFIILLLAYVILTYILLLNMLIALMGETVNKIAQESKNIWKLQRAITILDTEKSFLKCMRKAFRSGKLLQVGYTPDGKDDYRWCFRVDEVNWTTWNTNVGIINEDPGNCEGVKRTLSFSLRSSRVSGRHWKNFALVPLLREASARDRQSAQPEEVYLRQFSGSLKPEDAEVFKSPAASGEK

Cc1ccsc1C1CC(=O)N(CCN2CCOCC2)C1=O (racemic) [Compound 3, (R,S)-3-(3-Methylthiophen-2-yl)-1-(2-morpholinoethyl)pyrrolidine-2,5-dione hydrochloride]
% Inhibition of Control Specific Binding, Voltage-Sensitive Na+ Channel (site 2) [1]: 15.6%
TRPV1 antagonist effect (TRPV1 receptor): 14.8%
NT: number of mice with motor impairment/number of mice tested [2]: 0/4
ED50 ([3]; 32 mA): 74.3 mg/kg
responders at 100 mg/kg [3, 13]: 100%
6 Hz: tested animals protected ([3]; mice, 100 mg/kg, 32 mA): 100%
viability at 24 h [4]: > 94%
% Inhibition of Control Specific Binding, Voltage-Sensitive Ca2+ Channel L-typ [5]: −1.1%
TD50 at 0.5 h [6]: > 200 mg/kg
responders at 100 mg/kg [7, 14]: 25%
Hot plate: prolongation of latency time to pain reaction [8]: inactive
scPTZ: tested animals protected [9]: 50%
scPTZ: latency time to first seizure episode ([9]; control 436.8 ± 91.94 s): 1435 ± 234.9 s
scPTZ: prolongation of latency time to first seizure episode ([9]; vs control, p < 0.001): 228%
% Inhibition of Control Specific Binding, GABA Transporter (GAT) (GABA Transporter (GAT)): −1.1%
Reduction of number of writhes (inhibition of writhing behavior) ([10]; 30 mg/kg): 34%
Reduction of number of writhes (inhibition of writhing behavior) ([10]; 45 mg/kg): 39%

Cc1ccsc1C1CC(=O)N(CCCN2CCOCC2)C1=O (racemic) [Compound 4, (R,S)-3-(3-Methylthiophen-2-yl)-1-(3-morpholinopropyl)pyrrolidine-2,5-dione hydrochloride]
% Inhibition of Control Specific Binding, Voltage-Sensitive Na+ Channel (site 2) [1]: 42.1%
NT: number of mice with motor impairment/number of mice tested [2]: 0/4
responders at 100 mg/kg [3, 15]: 75%
ED50 ([3]; 32 mA): 75.6 mg/kg
PI (TD50/ED50), 6 Hz [3]: < 2.65
6 Hz: tested animals protected ([3]; mice, 100 mg/kg, 32 mA): at least 75%
viability at 24 h [4]: > 94%
% Inhibition of Control Specific Binding, Voltage-Sensitive Ca2+ Channel L-typ [5]: 39.7%
TD50 at 0.5 h [6]: < 200 mg/kg
responders at 100 mg/kg [7, 16]: 75%
ED50 [7]: 62.1 mg/kg
MES: tested animals protected ([7]; mice, 100 mg/kg): 75%
Hot plate: prolongation of latency time to pain reaction [8]: inactive
scPTZ: effect in words [9]: no significant effect
% Inhibition of Control Specific Binding, GABA Transporter (GAT) (GABA Transporter (GAT)): −3.2%
Reduction of number of writhes (inhibition of writhing behavior) ([10]; 30 mg/kg): 29.8%

Cc1ccsc1C1CC(=O)N(CCCN2CCN(c3cccc(C(F)(F)F)c3)CC2)C1=O (racemic) [Compound 6, (R,S)-3-(3-Methylthiophen-2-yl)-1-(3-(4-(3-(trifluoromethyl)phenyl)piperazin-1-yl)propyl)pyrrolidine-2,5-dione hydrochloride]
% Inhibition of Control Specific Binding, Voltage-Sensitive Na+ Channel (site 2) [1]: 96.7%
TRPV1 antagonist effect (TRPV1 receptor): 74.8%
NT: number of mice with motor impairment/number of mice tested [2]: 4/4
responders at 100 mg/kg [3, 15]: 75%
ED50 ([3]; 32 mA): 78.3 mg/kg
PI (TD50/ED50), 6 Hz [3]: < 1.28
6 Hz: tested animals protected ([3]; mice, 100 mg/kg, 32 mA): at least 75%
Hepatotoxicity in Hep G2 cells, in words (Hep G2 cells): no hepatotoxicity
Inhibition of viability of Hep G2 cells (Hep G2 cells): 13–28%
% Inhibition of Control Specific Binding, Voltage-Sensitive Ca2+ Channel L-typ [5]: 69.9%
TD50 at 0.5 h [6]: < 100 mg/kg
responders at 100 mg/kg [7, 16]: 25%
Hot plate: prolongation of latency time to pain reaction [8]: 49%
Reduction of number of writhes (inhibition of writhing behavior) ([10]; 30 mg/kg): 27%

Cc1ccsc1C1CC(=O)N(CCCN2CCN(c3ccc(Cl)c(Cl)c3)CC2)C1=O (racemic) [Compound 9, (R,S)-1-(3-(4-(3,4-Dichlorophenyl)piperazin-1-yl)propyl)-3-(3-methylthiophen-2-yl)pyrrolidine-2,5-dione hydrochloride]
% Inhibition of Control Specific Binding, Voltage-Sensitive Na+ Channel (site 2) [1]: 78.8%
TRPV1 antagonist effect (TRPV1 receptor): 109.5%
NT: number of mice with motor impairment/number of mice tested [2]: 0/4
ED50 ([3]; 32 mA): > 130 mg/kg
responders at 100 mg/kg [3, 13]: 50%
Hepatotoxicity in Hep G2 cells, in words (Hep G2 cells): no hepatotoxicity
Inhibition of viability of Hep G2 cells (Hep G2 cells): 13–28%
% Inhibition of Control Specific Binding, Voltage-Sensitive Ca2+ Channel L-typ [5]: −9.5%
TD50 at 0.5 h [6]: > 300 mg/kg
ED50 [7]: > 130 mg/kg
responders at 100 mg/kg [7, 14]: 50%
MES: tested animals protected ([7]; mice, 100 mg/kg): 50%
Hot plate: prolongation of latency time to pain reaction [8]: 43%
Reduction of number of writhes (inhibition of writhing behavior) ([10]; 30 mg/kg): 61.44%

Cc1ccsc1C1CC(=O)N(CC(=O)N2CCN(c3cccc(Cl)c3)CC2)C1=O (racemic) [Compound 14, (R,S)-1-(2-(4-(3-Chlorophenyl)piperazin-1-yl)-2-oxoethyl)-3-(3-methylthiophen-2-yl)pyrrolidine-2,5-dione]
NT: number of mice with motor impairment/number of mice tested [2]: 0/4
ED50 ([3]; 32 mA): 153 mg/kg
responders at 100 mg/kg [3, 13]: 50%
TD50 at 0.5 h [6]: > 300 mg/kg
responders at 100 mg/kg [7, 14]: 0%
scPTZ: effect in words [9]: no significant effect

CCC1(C)CC(=O)NC1=O (centres unmarked) [ETX, ethosuximide]
MES: protection in words [11]: did not show protection
MES ED50 ([11]; mice ip, reference AEDs): > 500 mg/kg
6 Hz ED50 [12]: 221.7 (183.0–268.5) mg/kg
PI (TD50/ED50), 6 Hz [12]: 3.2 (6 Hz)

CCCC(CCC)C(=O)O [VPA, valproic acid]
PI (TD50/ED50), MES ([11]; mice ip, reference AEDs): 1.7
6 Hz ED50 [12]: 130.6 (117.6–145.2) mg/kg
PI (TD50/ED50), 6 Hz [12]: 3.3
